Experimental data taken from patent US8258128B2, “Organic compounds” (Novartis AG, priority 2006, dated 2012).
“Also recorded” adds a separate entry of the source. Where two headings read alike, the source gives them in different places. Marks after values point to notes of the source that are not given here.

Experiments:
[1] = tested on: collagen-induced arthritis in the rats; experiment: Collagen-induced arthritis in the rats, hind paw swelling; assay type: in vivo, rat
Description: Animal models of RA need to reflect at least some of the features found in human RA (Billingham et al., 1979). Collagen-induced arthritis (CIA) has been proposed to meet these requirements (Durie et al., 1994). Especially the similarity in the joint pathophysiology makes this animal model most attractive for the evaluation of anti-rheumatic drugs (Takeshita et al., 1997). Synovial hyperplasia, which is an integral part of the disease, parallels the migration of leukocytes into the joint space; erosion and destruction of the cartilage surface can also be found (Holmdahl et al., 1985). The rat CIA, originally described by Trentham et al. (1977), was established and extensive studies with CsA were done, including three-dimensional magnetic resonance imaging (MRI) and histology (Beckmann et al., 1995; 1998). Differences in the susceptibility of several rat strains for the development of the disease have been reported (Cremer et al., 1995; Kamada et al., 1997; Knoerzer et al., 1997).
(§1) Method: For this study, COMPOUND A and COX-inhibitor Diclofenac are dissolved in a solvent containing 5% of glucose (5 ml/kg). Compounds are given orally once a day. Female rats of the WAGxBUF/F1 crossbred strain (weight 130 g) are used. The animals are divided into several groups, one placebo group (N=8), and four treatment groups (each N=7-8). Treatment starts on peak of disease (day 0) and continues for 11 days. Swelling is assessed at regular time intervals by measuring the external thickness of the hind paws in the region of the metatarsals using a micro-caliper. Tissue samples for histological evaluation are obtained at the end of the in vivo experiment, 5 h after the last oral dose of COMPOUND A or placebo on day 11.
Results shown are means±SEM of groups of each 4-8 animals of paw diameters in mm on day-12 (before the immunization with Type II collagen in incomplete Freund's adjuvant), day 0 (start of treatment) and day 11 (end of treatment).
The data shown represent the ability of the treatment (COMPOUND A at 4 different increasing doses) to reduce the volume of the hind paw measured at day 2, day 7 and day 11.

[2] = tested on: collagen-induced arthritis in the rats; experiment: Collagen-induced arthritis in the rats, histological evaluation of hind paws; assay type: in vivo, rat; conditions: day 11
Protocol: as §1
Hind paws from control arthritic rats (vehicle-treated), taken post-mortem at the end of day 11 of the treatment, obtained relatively high histological scorings compared to histological scores of animals treated with COMPOUND A (0.3, 1, 3 and 9 mg/kg) or Diclofenac (1 mg/kg).

[3] = tested on: established Adjuvant-induced arthritis in rats; experiment: Established adjuvant-induced arthritis in rats (therapeutic dosing schedule); assay type: in vivo, rat; conditions: for ED50: Rattus norvegicus, read-out: Estimated ED50
Description: Adjuvant arthritis can be treated using two different dosing schedules; either starting at the time of immunization with adjuvant (prophylactic dosing) or from day 15 when the arthritic response is already established (therapeutic dosing). It is more difficult to inhibit adjuvant arthritis with the therapeutic dosing schedule as compared to the prophylactic schedule. Both versions of adjuvant arthritis are, however, extremely sensitive to the effects of both non-selective COX inhibitors and COX 2 selective inhibitors where 70-90% inhibition of swelling can be achieved at appropriate doses. These models may be predictive for some of the processes thought to be relevant in rheumatoid arthritis.
Method: Female Wistar rats weighing 150-170 g (housed in standard conditions, 5 animals per cage, with food and water ad libitum) are injected i.d. at the base of the tail with 0.1 ml of mineral oil containing 0.6 mg of lyophilized heat-killed Mycobacterium tuberculosis. The rats are treated orally with COMPOUND A or placebo formulation from day 15 to day 22 (therapeutic dosing schedule) or with COMPOUND A from day 0 to day 14 after immunization (prophylactic dosing schedule). At the end of the experiment, the swelling of the tarsal joints is measured by means of a micro-caliper. For the comparison study to Diclofenac both compounds are given from day 15 to day 29 with readouts at day 22 and 29. Percentage inhibition of paw swelling is calculated by reference to placebo treated arthritic animals (0% inhibition) and placebo treated normal animals (100% inhibition). Five animals are used per group. Data are analyzed using Kruskal-Wallis non-parametric ANOVA followed by Dunn's Multiple Comparison test.

[4] = Tolerability relative to effective dose in chronic disease models (general statement); assay type: in vivo; conditions: doses more than 10 times higher than the effective dose in chronic disease models
[5] = 0.3 mg/kg/day p.o., 7 day treatment (Table 7)
[6] = 1 mg/kg/day p.o., 7 day treatment (Table 7)
[7] = 1.25 mg/kg/day p.o., 7 days treatment, readout day 22 (Table 8)
[8] = 1.25 mg/kg/day p.o., 14 days treatment, readout day 29 (Table 8)
[9] = 2.5 mg/kg/day p.o., 7 days treatment, readout day 22 (Table 8)
[10] = 2.5 mg/kg/day p.o., 14 days treatment, readout day 29 (Table 8)
[11] = 3 mg/kg/day p.o., 7 day treatment (Table 7)
[12] = 5 mg/kg/day p.o., 7 days treatment, readout day 22 (Table 8)

For `COC1=Nc2cc(Cl)ccc2/C(=C/C(=O)O)c2sc(Cl)cc21` [COMPOUND A, [2,7-Dichloro-10-methoxy-3-thia-9-aza-benzo[f]azulen-(4Z)-ylidene]-acetic acid], the “hind paw diameter, mean ± SEM” value ([1]; 0.3 mg/kg group, Day 0 (start of treatment)) was 5.406 ± 0.448 mm, the “hind paw diameter, mean ± SEM” value ([1]; 0.3 mg/kg group, Day −12 (before immunization)) was 3.069 ± 0.016 mm and the “median inhibition of swelling, analysis of the AUC during day 0 to 11” value (shortened to “median inhibition of swelling”) ([1]; 0.3 mg/kg per day p.o.) was 29±9.2%. For the same molecule, the “Effect on hind paw swelling” value ([1]; 0.3 mg/kg per day p.o., Day 0-11 (AUC)) was −29 ± 9.2%, the “Effect on hind paw swelling” value ([1]; 0.3 mg/kg per day p.o., Day 2) was −33% ** and the “Effect on hind paw swelling” value ([1]; 0.3 mg/kg per day p.o., Day 7) was −31% *. The “Effect on hind paw swelling” value ([1]; 0.3 mg/kg per day p.o., Day 11) was −20%, the “hind paw diameter, mean ± SEM” value ([1]; 0.3 mg/kg per day p.o., Day 11 (end of treatment)) was 4.417 ± 0.079 mm and the “hind paw diameter, mean ± SEM” value ([1]; 1 mg/kg group, Day 0 (start of treatment)) was 5.350 ± 0.344 mm. The “hind paw diameter, mean ± SEM” value ([1]; 1 mg/kg group, Day −12 (before immunization)) was 3.107 ± 0.046 mm, the “median inhibition of swelling” value ([1]; 1 mg/kg per day p.o.) was 37±6.8% and the “Effect on hind paw swelling” value ([1]; 1 mg/kg per day p.o., Day 0-11 (AUC)) was −37 ± 6.8%. For the same molecule, the “Effect on hind paw swelling” value ([1]; 1 mg/kg per day p.o., Day 2) was −40% **, the “Effect on hind paw swelling” value ([1]; 1 mg/kg per day p.o., Day 7) was −38% ** and the “Effect on hind paw swelling” value ([1]; 1 mg/kg per day p.o., Day 11) was −47% ***. The “hind paw diameter, mean ± SEM” value ([1]; 1 mg/kg per day p.o., Day 11 (end of treatment)) was 3.983 ± 0.064 mm, the “hind paw diameter, mean ± SEM” value ([1]; 3 mg/kg group, Day 0 (start of treatment)) was 5.379 ± 0.224 mm and the “hind paw diameter, mean ± SEM” value ([1]; 3 mg/kg group, Day −12 (before immunization)) was 3.136 ± 0.026 mm. For the same molecule, the “median inhibition of swelling” value ([1]; 3 mg/kg per day p.o.) was 51±7.1%, the “Effect on hind paw swelling” value ([1]; 3 mg/kg per day p.o., Day 0-11 (AUC)) was −51 ± 7.1% and the “Effect on hind paw swelling” value ([1]; 3 mg/kg per day p.o., Day 2) was −59% ***. The “Effect on hind paw swelling” value ([1]; 3 mg/kg per day p.o., Day 7) was −47% ***, the “Effect on hind paw swelling” value ([1]; 3 mg/kg per day p.o., Day 11) was −71% *** and the “hind paw diameter, mean ± SEM” value ([1]; 3 mg/kg per day p.o., Day 11 (end of treatment)) was 3.592 ± 0.085 mm. The “hind paw diameter, mean ± SEM” value ([1]; 9 mg/kg group, Day 0 (start of treatment)) was 5.364 ± 0.231 mm, the “hind paw diameter, mean ± SEM” value ([1]; 9 mg/kg group, Day −12 (before immunization)) was 3.043 ± 0.028 mm and the “median inhibition of swelling” value ([1]; 9 mg/kg per day p.o.) was 67±5.4%. For the same molecule, the “Effect on hind paw swelling” value ([1]; 9 mg/kg per day p.o., Day 0-11 (AUC)) was −67 ± 5.4%, the “Effect on hind paw swelling” value ([1]; 9 mg/kg per day p.o., Day 2) was −69% *** and the “Effect on hind paw swelling” value ([1]; 9 mg/kg per day p.o., Day 7) was −75% ***. The “Effect on hind paw swelling” value ([1]; 9 mg/kg per day p.o., Day 11) was −90% ***, the “hind paw diameter, mean ± SEM” value ([1]; 9 mg/kg per day p.o., Day 11 (end of treatment)) was 3.275 ± 0.038 mm and the “detrimental effect on body weight gain” value ([1]; 0.3 to 9 mg/kg per day p.o., 11 days) was “not observed; also recorded: does not interfere with body weight gain”. The “Bone apposition, effect on histological score” value ([2]; 0.3 mg/kg/day p.o.) was “+4%”, the “Cartilage damage, effect on histological score” value ([2]; 0.3 mg/kg/day p.o.) was −6% and the “Infiltration of cells, effect on histological score” value ([2]; 0.3 mg/kg/day p.o.) was “+8%”. For the same molecule, the “Loss of PG, effect on histological score” value ([2]; 0.3 mg/kg/day p.o.) was “+1%”, the “Bone apposition, effect on histological score” value ([2]; 1 mg/kg/day p.o.) was −28% and the “Cartilage damage, effect on histological score” value ([2]; 1 mg/kg/day p.o.) was −24%. The “Infiltration of cells, effect on histological score” value ([2]; 1 mg/kg/day p.o.) was −7%, the “Loss of PG, effect on histological score” value ([2]; 1 mg/kg/day p.o.) was −13% and the “Bone apposition, effect on histological score” value ([2]; 3 mg/kg/day p.o.) was −35% *. The “Cartilage damage, effect on histological score” value ([2]; 3 mg/kg/day p.o.) was −40% *, the “Infiltration of cells, effect on histological score” value ([2]; 3 mg/kg/day p.o.) was −25% and the “Loss of PG, effect on histological score” value ([2]; 3 mg/kg/day p.o.) was −28% *. The “Bone apposition, effect on histological score” value ([2]; 9 mg/kg/day p.o.) was −51% **, the “Cartilage damage, effect on histological score” value ([2]; 9 mg/kg/day p.o.) was −56% *** and the “Infiltration of cells, effect on histological score” value ([2]; 9 mg/kg/day p.o.) was −34% **. The “Loss of PG, effect on histological score” value ([2]; 9 mg/kg/day p.o.) was −40% *, the “% inhibition” value [3, 5] was 15.8 * % and the “Swelling (mm) ± S.D.” value [3, 5] was 6.79 ± 0.9 mm. For the same molecule, the “% inhibition” value [3, 6] was 39.0 * %, the “Swelling (mm) ± S.D.” value [3, 6] was 4.92 ± 0.63 mm and the “% inhibition” value [3, 7] was 51.0 * %. For the same molecule, the “Swelling (mm) ± S.D.” value [3, 7] was 4.22 ± 0.57 mm, the “% inhibition” value [3, 8] was 60.3 * % and the “Swelling (mm) ± S.D.” value [3, 8] was 3.06 ± 0.63 mm. The “% inhibition” value [3, 9] was 60.5 * %, the “Swelling (mm) ± S.D.” value [3, 9] was 3.40 ± 0.92 mm and the “% inhibition” value [3, 10] was 62.0 * %. The “Swelling (mm) ± S.D.” value [3, 10] was 2.93 ± 0.80 mm, the “% inhibition” value [3, 11] was 45.0 * % and the “Swelling (mm) ± S.D.” value [3, 11] was 4.41 ± 0.59 mm. For the same molecule, the “% inhibition” value [3, 12] was 65.0 * %, the “Swelling (mm) ± S.D.” value [3, 12] was 2.94 ± 1.28 mm and the “Swelling (mm) ± S.D.” value ([3]; 5 mg/kg/day p.o., 14 days treatment, readout day 29 (Table 8)) was 2.23 ± 0.66 mm. For the same molecule, the “Swelling (mm) ± S.D.” value ([3]; 9 mg/kg/day p.o., 7 day treatment (Table 7)) was 2.84 ± 0.73 mm, the ED50 ([3]; 336 h, 2 week treatment schedule) was under 1.25 mg/kg and the ED50 ([3]; po, 168 h, p.o., one week treatment schedule) was at most 1.25 mg/kg. The tolerability [4] was “very well tolerated”.
